In US10793864B2, “Methods and compositions for assessing viral nuclear localization” (GEORGE MASON UNIVERSITY, priority 2015, dated 2020):
“Also recorded” adds a separate entry of the source.

Experiments:
Assay type in all cases: cell-based
CEM-SS T cells = assay: Drug cytotoxicity by PI staining and flow cytometry; details: CK548-treated and infected CEM-SS T cells; at 50 μM and below
Description: (§1) Briefly, CEM-SS T cells were pre-treated with DMSO or CK548 for 1 hour, and then infected with HIV-1NL4-3. Viral replication was measured by p24 release (see FIG. 5A). Drug cytotoxicity was meaured in CK548-treated and infected cells by PI staining and flow cytometry (see FIG. 5B). Shown is the percentage of PI-positive cells. […] Cells were infected for 2 hours, washed, and cultured in the presence of the drug for 48 hours. Total cellular DNA was extracted at 48 hours post infection and then PCR-amplified to quantify viral DNA (for results see FIG. 5C). Viral 2-LTR-circles were also measured (see FIG. 5D). The relative ratio of 2-LTR circles to viral total DNA was also plotted.

[1] = test system: single-cycle HIV-1(Env) pseudotyped with HIV-1 gp160; assay: Viral nuclear migration, 2-LTR circles measured after single-cycle HIV-1 infection; details: CEM-SS T cells, 48 hours post infection
Description: as §1
(§2) The nuclear migration assay was performed in two CEM-SS-based cells, shArp-12 and shArp-13, which we recently constructed. In both shArp-12 and shArp-13, the actin branching factor Arp3 was stably knockdown (80% knockdown). […] We will re-measure the nuclear entry defect by BLNMA. […] We will also perform BLNMA to confirm the phenotype.

HIV-1NL4-3 = assay: HIV-1 replication measured by p24 release in CEM-SS T cells; details: CEM-SS T cells pre-treated 1 hour, infected with HIV-1NL4-3
Description: as §1

[2] = test system: single-cycle HIV-1(Env) pseudotyped with HIV-1 gp160; assay: PCR quantification of viral DNA after single-cycle HIV-1 infection; details: CEM-SS T cells, 48 hours post infection
Description: as §1, §2

O=C1CSC(c2cccc(Br)c2)N1c1cc(Cl)ccc1O (stereo not shown) [CK548]
Drug cytotoxicity (percentage of PI-positive cells) (CEM-SS T cells): No drug cytotoxicity was detectable | HIV nuclear migration (2-LTR circles) [1]: inhibits HIV-1 infection and viral nuclear migration; also recorded: dramatically inhibited HIV nuclear migration | HIV-1 infection (viral replication by p24 release) (HIV-1NL4-3): inhibits HIV-1 infection | HIV DNA synthesis (viral total DNA by PCR) [2]: stimulating HIV DNA synthesis
